Measured values as given in patent US20220401564A1 (DANA-FARBER CANCER INSTITUTE, INC., priority 2019, published 2022).
Entries after “also recorded” stand apart in the source; their conditions may differ.

Columns and labels:
HDAC5 = target: T1, HDAC5 (Homo sapiens, UniProt Q9UQL6); assay: HDAC enzymatic assay (Reaction Biology), Class 2A substrate; assay type: biochemical; conditions: 10-dose response curve; read-out: Compound IC50 (M), HDAC5
T1 construct: purchased Reaction Biology
Protocol: Compounds 2 and 9 were tested in an enzymatic assay from Reaction Biology® against HDAC isoforms.
Base Reaction buffer: 50 mM Tris-HCl, pH8.0, 137 mM NaCl, 2.7 mM KCl, and 1 mM MgCl2. Add fresh: 1 mg/ml BSA, 1% DMSO
Class 2A Substrate (HDAC4, HDAC5, HDAC7, and HDAC9): Boc-Lys(trifluoroacetyl)-AMC
1. Delivered 2X enzyme in wells of reaction plate except in the control wells and added buffer to control wells. 2. Delivered compounds in 100% DMSO into the enzyme mixture by Acoustic technology (Echo550; nanoliter range). Spin down and pre-incubation. 3. Delivered 2X Substrate Mixture (Fluorogenic HDAC Substrate and co-factor if applicable) in all reaction wells to initiate the reaction. Spin and shake. 4. Incubated for 30 min for Class 2A, 1 h for HDAC1, 2, 3, and 6, and 2 h for the rest of HDAC isoforms and SIRTs at 30° C. with seal.
5. Added Developer with Trichostatin A (or Nicotinamide for SIRTs) to stop the reaction and to generate fluorescent color. 6. The fluorescence that was generated was detected with excitation (Ex) at […] and emission (Em) at 460 nM by the EnVision Multilabel Plate Reader (PerkinElmer®, Santa Clara, Calif., USA).
IC50 values were derived from a 10-dose response curve. As shown in Tables 1-2, the addition of a linker and CRBN targeting group altered the isoform selectivity of the SAHA-based degrader compounds.

HDAC8 = target: T2, HDAC8 (Homo sapiens, UniProt Q9BY41); assay: Change in cellular protein abundance (TMT proteomics) in Kelly cells; assay type: cell-based; parameters: relative change in relative protein abundance with treatment of Kelly cells; endogenous in cells; host or cells: Kelly cells; conditions: FIG. 3A
T2 sequence (Q9BY41 1-377): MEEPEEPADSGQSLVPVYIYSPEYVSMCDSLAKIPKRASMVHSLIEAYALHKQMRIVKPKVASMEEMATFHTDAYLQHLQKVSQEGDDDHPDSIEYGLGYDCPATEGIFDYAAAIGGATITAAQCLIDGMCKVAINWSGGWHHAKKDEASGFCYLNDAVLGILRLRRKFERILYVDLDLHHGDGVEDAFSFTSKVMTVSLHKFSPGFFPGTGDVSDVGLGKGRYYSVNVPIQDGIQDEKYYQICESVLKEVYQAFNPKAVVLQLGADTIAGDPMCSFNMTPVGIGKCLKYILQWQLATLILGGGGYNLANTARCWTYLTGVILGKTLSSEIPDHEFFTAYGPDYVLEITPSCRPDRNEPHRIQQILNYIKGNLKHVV

T1 sequence (Q9UQL6 whole entry): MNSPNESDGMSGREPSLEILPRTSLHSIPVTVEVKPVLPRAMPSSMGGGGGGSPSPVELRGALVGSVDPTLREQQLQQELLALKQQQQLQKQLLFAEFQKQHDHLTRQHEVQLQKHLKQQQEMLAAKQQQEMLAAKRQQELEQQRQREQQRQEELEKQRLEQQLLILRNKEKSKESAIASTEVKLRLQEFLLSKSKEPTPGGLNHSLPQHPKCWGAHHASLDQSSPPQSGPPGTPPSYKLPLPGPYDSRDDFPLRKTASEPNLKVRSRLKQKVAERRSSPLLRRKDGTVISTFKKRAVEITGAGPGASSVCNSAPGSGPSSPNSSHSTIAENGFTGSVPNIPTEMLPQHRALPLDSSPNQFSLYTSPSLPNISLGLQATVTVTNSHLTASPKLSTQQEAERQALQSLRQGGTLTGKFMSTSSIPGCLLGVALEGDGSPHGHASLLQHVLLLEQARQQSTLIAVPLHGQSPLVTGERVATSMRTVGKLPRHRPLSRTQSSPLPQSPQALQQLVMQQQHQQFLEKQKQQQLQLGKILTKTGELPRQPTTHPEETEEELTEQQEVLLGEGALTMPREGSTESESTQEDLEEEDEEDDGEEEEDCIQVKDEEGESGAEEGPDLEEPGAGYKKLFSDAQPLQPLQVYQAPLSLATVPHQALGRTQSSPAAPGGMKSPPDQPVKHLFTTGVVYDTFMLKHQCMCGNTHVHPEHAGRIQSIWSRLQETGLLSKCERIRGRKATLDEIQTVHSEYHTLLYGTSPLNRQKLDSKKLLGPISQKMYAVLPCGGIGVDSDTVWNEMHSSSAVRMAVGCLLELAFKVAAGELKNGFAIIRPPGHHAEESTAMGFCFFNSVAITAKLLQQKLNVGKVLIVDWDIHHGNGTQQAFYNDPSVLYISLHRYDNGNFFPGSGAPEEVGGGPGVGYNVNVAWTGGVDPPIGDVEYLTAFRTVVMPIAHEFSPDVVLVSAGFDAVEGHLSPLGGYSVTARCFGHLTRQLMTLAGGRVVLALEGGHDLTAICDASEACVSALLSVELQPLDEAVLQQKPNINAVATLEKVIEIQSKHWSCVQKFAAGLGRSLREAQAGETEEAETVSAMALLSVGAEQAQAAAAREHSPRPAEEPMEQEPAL

| IC50 (HDAC5) [M] | Compound | HDAC8 protein levels, relative protein abundance compared to DMSO control (HDAC8) |
| --- | --- | --- |
| 2.69e-06 | Cc1ncsc1-c1ccc([C@H](C)NC(=O)[C@@H]2C[C@@H](O)CN2C(=O)[C@@H](NC(=O)CCOCCOCCN(CCc2c[nH]c3ccccc23)Cc2ccc(/C=C/C(=O)NO)cc2)C(C)(C)C)cc1 [Compound 2, (2S,4R)-1-((S)-14-(tert-butyl)-3-(4-((E)-3-(hydroxyamino)-3-oxoprop-1-en-1-yl)benzyl)-1-(1H-indol-3-yl)-12-oxo-6,9-dioxa-3,13-diazapentadecan-15-oyl)-4-hydroxy-N—((S)-1-(4-(4-methylthiazol-5-yl)phenyl)ethyl)pyrrolidine-2-carboxamide] | – |
| – | Cc1ncsc1-c1ccc(CNC(=O)[C@@H]2C[C@@H](O)CN2C(=O)[C@@H](NC(=O)C2(F)CC2)C(C)(C)C)c(OCCCCCN(CCc2c[nH]c3ccccc23)Cc2ccc(/C=C/C(=O)NO)cc2)c1 [Compound 7, (2S,4R)—N-(2-((5-((2-(1H-indol-3-yl)ethyl)(4-((E)-3-(hydroxyamino)-3-oxoprop-1-en-1-yl)benzyl)amino)pentyl)oxy)-4-(4-methylthiazol-5-yl)benzyl)-1-((S)-2-(1-fluorocyclopropane-1-carboxamido)-3,3-dimethylbutanoyl)-4-hydroxypyrrolidine-2-carboxamide] | promote degradation; also recorded: significant and selective reduction |
